Data taken from ChEMBL document CHEMBL3259522, “Synthesis and biological evaluation of some 2-(3,5-dimethyl-1H-pyrazol-1-yl)-1-arylethanones: antibacterial, DNA photocleavage, and anticancer activities” (2014).
Values after ≈ are worked out from the molar mass of the structure shown. Active and inactive are the calls of the source. No cut-off for these calls is given here.

How the values were obtained:
Pseudomonas aeruginosa [1] = test: Antibacterial activity against Pseudomonas aeruginosa assessed as diameter of growth inhibition zone after 24 hrs by two fold serial dilution method; format: functional
Escherichia coli [2] = test: Antibacterial activity against Escherichia coli assessed as diameter of growth inhibition zone after 24 hrs by two fold serial dilution method; format: functional
Staphylococcus aureus [3] = test: Antibacterial activity against Staphylococcus aureus assessed as diameter of growth inhibition zone after 24 hrs by two fold serial dilution method; format: functional
Enterococcus [4] = test: Antibacterial activity against Enterococcus assessed as diameter of growth inhibition zone after 24 hrs by two fold serial dilution method; format: functional
Pseudomonas aeruginosa [5] = test: Antibacterial activity against Pseudomonas aeruginosa assessed as growth inhibition after 24 hrs by two fold serial dilution method; format: functional
Escherichia coli [6] = test: Antibacterial activity against Escherichia coli assessed as growth inhibition after 24 hrs by two fold serial dilution method; format: functional
Staphylococcus aureus [7] = test: Antibacterial activity against Staphylococcus aureus assessed as growth inhibition after 24 hrs by two fold serial dilution method; format: functional
Enterococcus [8] = test: Antibacterial activity against Enterococcus assessed as growth inhibition after 24 hrs by two fold serial dilution method; format: functional
[9] = Induction of DNA degradation in supercoiled plasmid DNA (unknown origin) by agarose gel electrophoresis in absence of UV light
[10] = Induction of DNA degradation in open circular plasmid DNA (unknown origin) by agarose gel electrophoresis in absence of UV light
HCT-116 [11] = test: Anticancer activity against human HCT116 cells assessed as cell viability after 48 hrs by MTT assay; format: functional, cell-based
[12] = Induction of DNA photocleavage in supercoiled plasmid DNA (unknown origin) at 60 ug by agarose gel electrophoresis in presence of UV light
[13] = Induction of DNA photocleavage in open circular plasmid DNA (unknown origin) at 60 ug by agarose gel electrophoresis in presence of UV light
[14] = Induction of DNA photocleavage in supercoiled plasmid DNA (unknown origin) at 30 ug by agarose gel electrophoresis in presence of UV light
[15] = Induction of DNA photocleavage in open circular plasmid DNA (unknown origin) at 30 ug by agarose gel electrophoresis in presence of UV light
[16] = Induction of DNA photocleavage in supercoiled plasmid DNA (unknown origin) at 15 ug by agarose gel electrophoresis in presence of UV light
[17] = Induction of DNA photocleavage in open circular plasmid DNA (unknown origin) at 15 ug by agarose gel electrophoresis in presence of UV light
[18] = Induction of DNA photocleavage in supercoiled plasmid DNA (unknown origin) at 5 ug by agarose gel electrophoresis in presence of UV light
[19] = Induction of DNA photocleavage in open circular plasmid DNA (unknown origin) at 5 ug by agarose gel electrophoresis in presence of UV light
[20] = Induction of DNA photocleavage in supercoiled plasmid DNA (unknown origin) at 2.5 ug by agarose gel electrophoresis in presence of UV light
[21] = Induction of DNA photocleavage in open circular plasmid DNA (unknown origin) at 2.5 ug by agarose gel electrophoresis in presence of UV light
[22] = Induction of DNA photocleavage in supercoiled plasmid DNA (unknown origin) at 1 ug by agarose gel electrophoresis in presence of UV light
[23] = Induction of DNA photocleavage in open circular plasmid DNA (unknown origin) at 1 ug by agarose gel electrophoresis in presence of UV light
HCT-116 [24] = test: Anticancer activity against human HCT116 cells assessed as cell viability at 10 uM after 48 hrs by MTT assay; format: functional; details: HCT-116, 48 h, read-out: Activity
HCT-116 [25] = test: Anticancer activity against human HCT116 cells assessed as cell viability at 25 uM after 48 hrs by MTT assay; format: functional; details: HCT-116, 48 h, read-out: Activity
HCT-116 [26] = test: Anticancer activity against human HCT116 cells assessed as cell viability at 50 uM after 48 hrs by MTT assay; format: functional; details: HCT-116, 48 h, read-out: Activity
SK-OV-3 = test: Anticancer activity against human SKOV3 cells assessed as cell viability after 72 hrs by MTT assay; format: functional, cell-based
HT-29 = test: Anticancer activity against human HT-29 cells assessed as cell viability at 50 uM after 72 hrs by MTT assay; format: functional, cell-based
DU-145 = test: Anticancer activity against human DU145 cells assessed as cell viability at 50 uM after 72 hrs by MTT assay; format: functional, cell-based
Staphylococcus aureus [27] = test: Antibacterial activity against Staphylococcus aureus assessed as growth inhibition after 24 hrs by two fold serial dilution method relative to ampicillin; format: functional; design: scale not given: the % may be the effect or the level left
Klebsiella pneumoniae [28] = test: Antibacterial activity against Klebsiella pneumoniae assessed as diameter of growth inhibition zone after 24 hrs by two fold serial dilution method; format: functional
Klebsiella pneumoniae [29] = test: Antibacterial activity against Klebsiella pneumoniae assessed as growth inhibition after 24 hrs by two fold serial dilution method; format: functional

SMILES | diameter of the inhibition zone (DIZ) (Pseudomonas aeruginosa [1]) | diameter of the inhibition zone (DIZ) (Escherichia coli [2]) | diameter of the inhibition zone (DIZ) (Staphylococcus aureus [3]) | diameter of the inhibition zone (DIZ) (Enterococcus [4]) | MIC (Pseudomonas aeruginosa [5]) | MIC (Escherichia coli [6]) | MIC (Staphylococcus aureus [7]) | MIC (Enterococcus [8]) | Activity [9] | Activity [10] | Activity (HCT-116 [11]) | Activity [12] | Activity [13] | Activity [14] | Activity [15] | Activity [16] | Activity [17] | Activity [18] | Activity [19] | Activity [20] | other results
Cc1cc(C)n(CC(=O)c2ccccc2F)n1 | 11 mm | 11 mm | 10 mm | 10 mm | 256 µg/mL (≈ 1100 µM) | 256 µg/mL (≈ 1100 µM) | 256 µg/mL (≈ 1100 µM) | 256 µg/mL (≈ 1100 µM) | inactive | inactive | inactive | – | – | – | – | – | – | – | – | – | –
Cc1ccc(C(=O)Cn2nc(C)cc2C)cc1 | – | 11 mm | 11 mm | 15 mm | – | 512 µg/mL (≈ 2240 µM) | 256 µg/mL (≈ 1120 µM) | 64 µg/mL (≈ 280 µM) | inactive | inactive | inactive | – | – | – | – | – | – | – | – | – | –
Cc1cc(C)n(CC(=O)c2ccc(F)cc2F)n1 | – | 9 mm | 10 mm | 10 mm | – | 512 µg/mL (≈ 2050 µM) | 256 µg/mL (≈ 1020 µM) | 512 µg/mL (≈ 2050 µM) | inactive | inactive | inactive | Active | Active | Active | Active | inactive | inactive | inactive | inactive | inactive | Activity [21]: inactive; Activity [22]: inactive; Activity [23]: inactive
Cc1cc(C)n(CC(=O)c2ccc(Br)cc2)n1 | – | 14 mm | 14 mm | 12 mm | – | 256 µg/mL (≈ 873 µM) | 32 µg/mL (≈ 109 µM) | 512 µg/mL (≈ 1750 µM) | inactive | inactive | – | Active | Active | Active | Active | Active | Active | Active | Active | Active | Activity [21]: Active; Activity [22]: Active; Activity [23]: Active; viability at 10 µM (HCT-116 [24]): 62.4%; viability at 25 µM (HCT-116 [25]): 55.9%; viability at 50 µM (HCT-116 [26]): 47.4%; Activity (SK-OV-3): inactive; Activity (HT-29): inactive; Activity (DU-145): inactive; Activity (Staphylococcus aureus [27]): 6.25%
Cc1cc(C)n(CC(=O)c2ccc(Cl)cc2)n1 | – | 14 mm | 12 mm | 12 mm | – | 256 µg/mL (≈ 1030 µM) | 256 µg/mL (≈ 1030 µM) | 512 µg/mL (≈ 2060 µM) | inactive | inactive | inactive | – | – | – | – | – | – | – | – | – | –
CC1(C)S[C@@H]2[C@H](NC(=O)[C@H](N)c3ccccc3)C(=O)N2[C@H]1C(=O)O [AMPICILLIN] | 14 mm | 16 mm | 16 mm | 18 mm | 8 µg/mL (≈ 22.9 µM) | 8 µg/mL (≈ 22.9 µM) | 2 µg/mL (≈ 5.72 µM) | 2 µg/mL (≈ 5.72 µM) | – | – | – | – | – | – | – | – | – | – | – | – | diameter of the inhibition zone (DIZ) (Klebsiella pneumoniae [28]): 13 mm; MIC (Klebsiella pneumoniae [29]): 2 µg/mL (≈ 5.72 µM)
